Reference: patent US11401278B2, “Macrocyclic indole derivatives” (The Broad Institute, Inc., priority 2017, dated 2022)

Key:
BCL-2 = BCL-2 (Homo sapiens (Human), UniProt P10415); experiment: Protein-protein interaction assay BCL-2/Bad BH3 peptide (BCL-2 assay, TR-FRET); format: binding; conditions: His-BCL-2 / Bad BH3 peptide, median
Description: Assay 3 Protein-Protein Interaction Assay: BCL-2/Bad BH3 Peptide (BCL-2 Assay)
The dose-dependent inhibition by the compounds described in this invention of the interaction between BCL-2 and the BH3 domain of Bad (both human) was determined using a steady state binding competition assay with time-resolved fluorescence energy transfer (TR-FRET) readout. For that purpose BCL-2 (amino acids 1-211, C-terminal fused to a hexahistidine (6×His) tag (SEQ ID 5) and a synthetic Bad BH3-derived peptide of sequence Biotin-PEG2-PEG2-NLWAAQRYGRELRR-Nle-SDEFVDSFKK-amide (SEQ ID 4) served as protein receptor and tracer ligand respectively. The recombinant BCL-2 protein (expressed in E. coli) was purchased from BPS Bioscience (San Diego, Calif., USA). The Bad BH3-derived peptide can be obtained from e.g. Biosyntan (Berlin, Germany).
In the assay 11 different concentrations of each compound (0.1 nM, 0.33 nM, 1.1 nM, 3.8 nM, 13 nM, 44 nM, 0.15 μM, 0.51 μM, 1.7 μM, 5.9 μM and 20 μM) were typically measured as duplicates in the same microtiter plate. For that, 100-fold concentrated DMSO solutions were prepared by serial dilutions (1:3.4) of a 2 mM stock solution in a clear, 384-well microtiter plate (Greiner Bio-One, Frickenhausen, Germany). From there, 50 nl were transferred in a dark test plate (Greiner Bio-One, Frickenhausen, Germany). The assay was initiated by addition of 2 μl of a 2.5-fold concentrated His-BCL-2 solution (usually for a 1 nM end concentration in 5 μl reaction volume) in aqueous assay buffer [50 mM Tris/HCl pH 7, 100 mM sodium chloride (NaCl), 50 mM potassium fluoride (KF), 0.005% Tween-20, 2 mM DTT, 0.1% bovine gamma globulin (BGG)] to the compounds in the assay plate. This was followed by a 10-minute incubation step at 22° C. for pre-equilibration of the putative complex between His-BCL-2 and the compounds. After that, 3 μl of a 1.67-fold concentrated solution (in assay buffer) consisting of Bad BH3-derived peptide (1 nM end concentration) and TR-FRET detection reagents [1.67 nM anti-His-Eu cryptate and 1.67 nM streptavidin-XL665 (both from Cisbio Bioassays, Codolet, France)], were added.
The mixture was incubated in the dark for one hour at 22° C. and then overnight at 4° C. The formation of BCL-2/Bad complexes was determined by measuring the resonance energy transfer of the anti-His-Eu-cryptate antibody to the streptavidin-XL665 present in the reaction. For that purpose, the fluorescence emission at 620 nm and 665 nm after excitation at 330-350 nm was measured in a TR-FRET measuring instrument, for instance a Rubystar or a Pherastar (both from BMG Lab Technologies, Offenburg, Germany) or a Viewlux (Perkin-Elmer). The ratio of the emission at 665 nm and at 622 nm was used as indicator of the amount of BCL-2/Bad complexes present.
The resulting data (ratio) were normalized, taking 0% inhibition as the mean value of control measurements (usually 32 data points) where all reagents were included. In this case 50 nl DMSO were used instead of compounds. A 100% inhibition corresponded to the mean value of control measurements (usually 32 data points) where all reagents except BCL-2 were included. IC50 values were determined by regression analysis based on a 4 parameter equation (minimum, maximum, IC50, Hill; Y=Max+(Min−Max)/(1+(X/IC50)^HiII) using the Screener Software (Genedata).

SUDHL10 = experiment: Induction of caspase-3/7 activity (Assay 4), SUDHL10; format: cell-based; conditions: caspase-3/7 induction, median
How it was run: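 DLBCL cells were exposed to compounds for 3 hours at 37 °C, then caspase-3/7 activation was read with Caspase-Glo 3/7 reagent. After subtracting medium-only background, EC50s were derived with fixed C0=1 and the reference compound's maximal induction as plateau.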

BCL-2, sequence (P10415 other isoform, or with tags, fused parts or gaps): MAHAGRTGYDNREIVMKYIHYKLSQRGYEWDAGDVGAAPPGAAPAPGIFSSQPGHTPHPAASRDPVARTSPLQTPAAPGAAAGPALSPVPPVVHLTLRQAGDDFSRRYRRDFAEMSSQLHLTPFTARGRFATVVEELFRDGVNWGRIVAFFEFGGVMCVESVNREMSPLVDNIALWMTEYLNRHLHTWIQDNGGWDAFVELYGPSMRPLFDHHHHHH

Row | SMILES | IC50 (BCL-2) | EC50 (SUDHL10; Homo sapiens, SU-DHL10, 3 h) | EC50 (SUDHL10; 3 hours)
1 | CCc1c2c(nn1C)CN(C)S(=O)(=O)CCCn1c(C(=O)O)c(CCCOc3cccc4c3CCCC4)c3ccc(F)c-2c31 (racemic) [Example 34, (rac)-12-Ethyl-13-fluoro-8,11-dimethyl-1-(3-((5,6,7,8-tetrahydronaphthalen-1-yl)oxy)propyl)-5,6,9,11-tetrahydro-4H,8H-pyrazolo[3′,4′:4,5][1]thia[2,8]diazacycloundecino[6,7,8-hi]indole-2-carboxylic acid 7,7-dioxide] | > 20000 nM | 3600 nM | –
2 | CCc1c2c(nn1C)CN(C)S(=O)(=O)CCCn1c(C(=O)O)c(CCCOc3ccc(F)c4ccccc34)c3ccc(F)c-2c31 (racemic) [Example 35, (rac)-12-Ethyl-13-fluoro-1-(34(4-fluoronaphthalen-1-yl)oxy)propyl)-8,11-dimethyl-5,6,9,11-tetrahydro-4H,8H-pyrazolo[3′,4′:4,5][1]thia[2,8]diazacycloundecino[6,7,8-hi]indole-2-carboxylic acid 7,7-dioxide] | > 20000 nM | 2600 nM | –
3 | Cc1c2c(nn1C)CN(C1CC1)S(=O)(=O)CCCn1c(C(=O)O)c(CCCOc3cccc4cc(F)ccc34)c3ccc(Cl)c-2c31 (racemic) [Example 41, (rac)-4-chloro-14-cyclopropyl-7-{3-[(6-fluoro-1-naphthyl)oxy]propyl}-2,3-dimethyl-11,12,14,15-tetrahydro-2H,10H-pyrazolo[3′,4′:4,5][1,2,8]thiadiazacycloundecino[6,7,8-hi]indole-8-carboxylic acid 13,13-dioxide] | 19000 nM | – | 1600 nM
4 | Cc1c2c(nn1C)C(CCN1CCOCC1)N(C)S(=O)(=O)CCCn1c(C(=O)O)c(CCCOc3cccc4ccccc34)c3cccc-2c31 (racemic) [Example 44, (rac)-2,3,14-trimethyl-15-[2-(rac)-(morpholin-4-yl)ethyl]-7-[3-(1-naphthyloxy)propyl]-11,12,14,15-tetrahydro-2H,10H-pyrazolo[3′,4′:4,5][1,2,8]thiadiazacycloundecino[6,7,8-hi]indole-8-carboxylic acid 13,13-dioxide (Mixture of Stereoisomers)] | > 20000 nM | 1700 nM | –
5 | Cc1c2c(nn1C)C(N1CCOCC1)CCN(C)S(=O)(=O)CCCn1c(C(=O)O)c(CCCOc3cccc4cc(F)ccc34)c3ccc(Cl)c-2c31 (racemic) [Example 47, (rac)-15-chloro-1-(3-((6-fluoronaphthalen-1-yl)oxy)propyl)-8,13,14-trimethyl-11-(rac)-morpholino-5,6,9,10,11,13-hexahydro-4H,8H-pyrazolo[3′,4′:6,7][1]thia[2,10]diazacyclotridecino[8,9,10-hi]indole-2-carboxylic acid 7,7-dioxide (Mixture of Stereoisomers)] | > 20000 nM | 320 nM | –
6 | Cc1c2c(nn1C)C(CCN1CCOCC1)N(C)S(=O)(=O)CCCn1c(C(=O)O)c(CCCOc3cccc4cc(F)ccc34)c3ccc(Cl)c-2c31 (racemic) [Example 48, (rac)-4-chloro-7-{3-[(6-fluoro-1-naphthyl)oxy]propyl}-2,3,14-trimethyl-15-(rac)-[2-(morpholin-4-yl)ethyl]-11,12,14,15-tetrahydro-2H,10H-pyrazolo[3′,4′:4,5][1,2,8]thiadiazacycloundecino[6,7,8-hi]indole-8-carboxylic acid 13,13-dioxide (Mixture of Stereoisomers)] | > 20000 nM | – | 9.7 nM
7 | COc1ccc(CN2Cc3nn(C)c(C)c3-c3c(Cl)ccc4c(CCCOc5cccc6cc(F)ccc56)c(C(=O)O)n(c34)CCCS2(=O)=O)c(OC)c1 (racemic) [Example 49, (rac)-4-chloro-14-(2,4-dimethoxybenzyl)-7-{3-[(6-fluoro-1-naphthyl)oxy]propyl}-2,3-dimethyl-11,12,14,15-tetrahydro-2H,10H-pyrazolo[3′,4′:4,5][1,2,8]thiadiazacycloundecino[6,7,8-hi]indole-8-carboxylic acid 13,13-dioxide] | 20000 nM | 270 nM | –
8 | Cc1c2c(nn1C)CNS(=O)(=O)CCCn1c(C(=O)O)c(CCCOc3cccc4cc(F)ccc34)c3ccc(Cl)c-2c31 (racemic) [Example 50, (rac)-4-chloro-7-{3-[(6-fluoro-1-naphthyl)oxy]propyl}-2,3-dimethyl-11,12,14,15-tetrahydro-2H,10H-pyrazolo[3′,4′:4,5][1,2,8]thiadiazacycloundecino[6,7,8-hi]indole-8-carboxylic acid 13,13-dioxide] | > 20000 nM | 2800 nM | –
9 | CCc1c2c(nn1C)C(CCC1CCOCC1)N(C)S(=O)(=O)CCCn1c(C(=O)O)c(CCCOc3cccc4cc(F)ccc34)c3ccc(Cl)c-2c31 (racemic) [Example 59, (rac)-4-chloro-3-ethyl-7-{3-[(6-fluoro-1-naphthyl)oxy]propyl}-2,14-dimethyl-15-[2-(tetrahydro-2H-pyran-4-yl)ethyl]-11,12,14,15-tetrahydro-2H,10H-pyrazolo[3′,4′:4,5][1,2,8]thiadiazacycloundecino[6,7,8-hi]indole-8-carboxylic acid 13,13-dioxide (Racemate 2)] | 17000 nM | – | 78 nM
10 | Cc1c2c(nn1C)C(CCN1CCOCC1)N(C)S(=O)(=O)CCCn1c(C(=O)O)c(CCCOc3cccc4cc(F)ccc34)c3ccc(Cl)c-2c31 (racemic) [Example 65, (rac)-4-chloro-7-{3-[(6-fluoronaphthalen-1-yl)oxy]propyl}-2,3,14-trimethyl-15-(rac)-[2-(morpholin-4-yl)ethyl]-13,13-dioxo-10,11,12,13,14,15-hexahydro-2H-13lambda^6-pyrazolo[3′,4′:4,5][1,2,8]thiadiazacycloundecino[6,7,8-hi]indole-8-carboxylic acid (Mixture of Stereoisomers)] | > 20000 nM | – | 60 nM
11 | CCc1c2c(nn1C)CN(C)S(=O)(=O)CCCn1c(C(=O)O)c(CCCOc3cccc4cc(F)ccc34)c3ccc(F)c-2c31 (single isomer, unassigned; enantiomer 1) [Example 8, (+)-3-Ethyl-4-fluoro-7-{3-[(6-fluoronaphthalen-1-yl)oxy]propyl}-2,14-dimethyl-13,13-dioxo-10,11,12,13,14,15-hexahydro-2H-13λ^6-pyrazolo[3′,4′:4,5][1,2,8]thiadiazacycloundecino-[6,7,8-hi]indole-8-carboxylic acid (Enantiomer 1)] | > 20000 nM | – | 1000 nM
12 | CCc1c2c(nn1C)CN(C)S(=O)(=O)CCCn1c(C(=O)O)c(CCCOc3cccc4cc(F)ccc34)c3ccc(Cl)c-2c31 (single isomer, unassigned; enantiomer 1) [Example 36, (+)-4-chloro-3-ethyl-7-{3-[(6-fluoronaphthalen-1-yl)oxy]propyl}-2,14-dimethyl-13,13-dioxo-10,11,12,13,14,15-hexahydro-2H-13lambda^6-pyrazolo[3′,4′:4,5][1,2,8]thiadiazacycloundecino-[6,7,8-hi]indole-8-carboxylic acid (Enantiomer 1)] | 18000 nM | – | 200 nM
13 | Cc1c2c(nn1C)CN(C)S(=O)(=O)CCCn1c(C(=O)O)c(CCCOc3cccc4cc(F)ccc34)c3ccc(F)c-2c31 (single isomer, unassigned; enantiomer 1) [Example 38, (−)-4-fluoro-7-{3-[(6-fluoronaphthalen-1-yl)oxy]propyl}-2,3,14-trimethyl-13,13-dioxo-10,11,12,13,14,15-hexahydro-2H-13lambda^6-pyrazolo[3′,4′:4,5][1,2,8]thiadiazacycloundecino-[6,7,8-hi]indole-8-carboxylic acid (Enantiomer 1)] | > 20000 nM | – | 22000 nM
